Experimental data as given in patent publication US12168678B2, “Heme sequesting peptides and uses therefor” (Board of Regents, The University of Texas System, priority 2019, dated 2024).
Structures can show the parent of a compound that is named as a salt.

Assays:
A549 cells = test: Colony formation assay; type: cell-based, human; conditions: for colony formation: 6 days, 0.5 mM succinyl acetone, 10 μM HSPs, 50 μM DFX, 10 μM SnPP; for effect of heme addition on colony formation: 10 μM heme add-back; for effect of iron addition on colony formation: 50 μM ferric chloride
Procedure: (§1) Cell proliferation was measured by detecting the luciferase activity in live cells and by using a hemocytometer. Cell migration and invasion assays were carried out with BD Falcon cell culture inserts (Corning Life Sciences) and the manufacturer's cell migration, chemotaxis, and invasion assay protocols. For the colony formation assay, 5000 NSCLC cells were seeded in every well in 6-well tissue culture plates in triplicates. Cells were treated with 0.5 mM succinyl acetone (Sigma Aldrich), 10 μM HSPs, 50 μM deferoxamine mesylate (DFX), 10 μM zinc (II) protoporphyrin IX, 10 μM tin (IV) protoporphyrin IX, or 50 μM ferric chloride for 6 days. For heme add-back experiments, 10 μM heme was included. Medium was changed every 3 days. After 6 days of treatment, cells were fixed with 70% ethanol and stained with 0.5% crystal violet. Images were acquired by using Carestream Gel Logic GL-112 imaging system.

H1299 cells = test: Colony formation assay; type: cell-based, human; conditions: for colony formation: 6 days, 0.5 mM succinyl acetone, 10 μM HSPs, 50 μM DFX, 10 μM SnPP; for effect of heme addition on colony formation: 10 μM heme add-back; for effect of iron addition on colony formation: 50 μM ferric chloride
Procedure: as §1

heme oxygenases = conditions: reference 51; cited from earlier work
[1] = references 55, 56; cited from earlier work
A549 NSCLC cells [2] = test: Cell invasion assay (Matrigel invasion chambers); type: cell-based, human; conditions: 10 μM heme
[3] = system: 5-aminolevulic synthase (ALAS1); conditions: previous studies, non-erythroid cells; cited from earlier work
[4] = system: H1299 NSCLC lung tumor xenografts; type: in vivo; conditions: SA 50 mg/kg I.V. every 3 days, from 4 days after implantation
H1299 NSCLC cells [5] = test: Cell invasion assay (Matrigel invasion chambers); type: cell-based, human; conditions: heme add-back 10 μM, b23 prints 10 mM
H1299 NSCLC cells [6] = test: Cell migration assay (Transwell inserts); type: cell-based, human; conditions: heme add-back 10 μM, b23 prints 10 mM
Procedure: as §1

A549 NSCLC cells [7] = test: Cell migration assay (Transwell inserts); type: cell-based, human; conditions: 10 μM heme
Procedure: as §1

Tin (IV) protoporphyrin [SnPP]
colony formation (A549 cells): appeared to reduce colony formation
colony formation (H1299 cells): appeared to reduce colony formation
inhibition of the activities of heme oxygenases (heme oxygenases): strong inhibitor

CC(=O)N(O)CCCCCNC(=O)CCC(=O)N(O)CCCCCNC(=O)CCC(=O)N(O)CCCCCN [DFX, Deferoxamine mesylate]
effect of heme addition on colony formation (A549 cells): partially reversed
effect of iron addition on colony formation (A549 cells): largely reversed
colony formation (A549 cells): reduced colony formation
effect of heme addition on colony formation (H1299 cells): partially reversed
effect of iron addition on colony formation (H1299 cells): largely reversed
colony formation (H1299 cells): reduced colony formation

CC(=O)CC(=O)CCC(=O)O [succinyl acetone, Succinyl acetone]
toxicity to animals [1]: low toxicity
effect of heme addition on reduced invasion (A549 NSCLC cells [2]): largely reversed
effect of heme addition on colony formation (A549 cells): largely reversed
effect of iron addition on colony formation (A549 cells): did not reverse
colony formation (A549 cells): strongly suppressed colony formation
effect of heme addition on colony formation (H1299 cells): largely reversed
effect of iron addition on colony formation (H1299 cells): did not reverse
colony formation (H1299 cells): strongly suppressed colony formation
inhibition of heme biosynthesis [3]: effective inhibitor
suppression of lung tumors (BLI) [4]: not very effective
effect of heme addition on reduced invasion (H1299 NSCLC cells [5]): largely reversed
effect of heme addition on reduced migration (H1299 NSCLC cells [6]): largely reversed
effect of heme addition on reduced migration (A549 NSCLC cells [7]): largely reversed
